Results reported in patent US11939314B2, “Quinolin-2-one derivatives” (MERCK PATENT GMBH, priority 2016, dated 2024).
Structures can show the parent of a compound that is named as a salt.

Tests used:
[1] = target: T1, c-Kit(V654A) (Homo sapiens, UniProt P10721, V654A); experiment: c-Kit(V654A) assay; type: biochemical; conditions: recombinant human c-Kit aa 544-end, 200 μM ATP, 1.4E-06 means 1.4×10^−6, read-out: Inhibition (IC50) of c-KIT (V654A)
T1 construct: amino acids 544-end containing the V654A mutation; GST (N)
Method in brief: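 Radiometric filter-binding read-out: substrate 33P incorporation counted by scintillation after P30 filtermat washes in 75 mM phosphoric acid and methanol. Enzyme: N-GST recombinant human c-Kit aa 544-end carrying V654A.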

[2] = target: T2, PDGFRalpha(V561D) (Homo sapiens, UniProt P16234, V561D); experiment: PDGFRalpha(V561D) assay; type: biochemical; conditions: recombinant human PDGFRalpha aa 550-end, 200 μM ATP, 1.4E-06 means 1.4×10^−6, read-out: Inhibition (IC50) of PDGFRα (V561D)
T2 construct: recombinant human PDGFRalpha, amino acids 550end containing the V561 D mutation; 6His (N)
Method in brief: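 Radiometric filter-binding assay: substrate phosphorylation by recombinant N-His-tagged human PDGFRα 550-end V561D was quenched with 3% phosphoric acid after 40 min at room temperature, then counted.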

T1 sequence (P10721 544-976 V654A): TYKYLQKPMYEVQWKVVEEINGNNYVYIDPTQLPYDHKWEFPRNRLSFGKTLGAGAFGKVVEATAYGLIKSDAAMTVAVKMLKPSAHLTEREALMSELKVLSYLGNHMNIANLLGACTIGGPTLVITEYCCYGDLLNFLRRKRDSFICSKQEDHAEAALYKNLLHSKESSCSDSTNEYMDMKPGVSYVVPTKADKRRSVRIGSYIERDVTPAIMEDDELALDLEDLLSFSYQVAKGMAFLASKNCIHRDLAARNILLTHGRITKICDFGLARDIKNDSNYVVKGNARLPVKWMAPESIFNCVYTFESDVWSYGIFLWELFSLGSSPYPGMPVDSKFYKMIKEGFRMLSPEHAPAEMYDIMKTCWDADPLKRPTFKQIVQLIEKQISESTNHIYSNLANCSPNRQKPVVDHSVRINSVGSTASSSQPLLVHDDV
T2 sequence (P16234 550-1089 V561D): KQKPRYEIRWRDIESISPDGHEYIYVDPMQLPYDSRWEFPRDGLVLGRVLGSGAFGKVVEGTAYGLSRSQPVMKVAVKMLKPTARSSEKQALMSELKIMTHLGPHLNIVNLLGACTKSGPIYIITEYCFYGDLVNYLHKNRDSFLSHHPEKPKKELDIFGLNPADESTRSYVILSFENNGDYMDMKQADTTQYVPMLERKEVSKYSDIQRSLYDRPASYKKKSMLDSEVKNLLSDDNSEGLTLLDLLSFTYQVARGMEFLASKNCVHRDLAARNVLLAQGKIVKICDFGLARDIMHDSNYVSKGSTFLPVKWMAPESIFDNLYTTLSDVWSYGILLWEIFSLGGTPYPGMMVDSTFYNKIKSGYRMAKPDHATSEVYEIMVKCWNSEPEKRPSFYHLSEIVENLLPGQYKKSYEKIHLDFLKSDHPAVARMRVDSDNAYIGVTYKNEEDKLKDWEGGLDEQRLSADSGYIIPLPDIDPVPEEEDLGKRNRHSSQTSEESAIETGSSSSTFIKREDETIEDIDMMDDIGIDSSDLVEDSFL

Row | Structure (SMILES) | IC50 [1] [nM] | IC50 [2] [nM]
1 | O=C(c1ccc(-n2cc(-c3cc4cc(F)ccc4[nH]c3=O)nn2)cc1)N1C[C@@H](O)CO1 [A274, 6-fluoro-3-{1-[4-((R)-4-hydroxy-isoxazolidine-2-carbonyl)-phenyl]-1H-[1,2,3]triazol-4-yl}-1H-quinolin-2-one] | 61 | 3.3
2 | O=C(c1ccc(-n2cc(-c3cc4cc(Cl)ccc4[nH]c3=O)nn2)cc1)N1C[C@@H](O)CO1 [A275, 6-chloro-3-{1-[4-((R)-4-hydroxy-isoxazolidine-2-carbonyl)-phenyl]-1H-[1,2,3]triazol-4-yl}-1H-quinolin-2-one] | 45 | 0.21
3 | O=C(c1ccc(-n2cc(-c3cc4cc(Cl)ccc4[nH]c3=O)nn2)cc1)N1C[C@H](O)CO1 [A277, 6-chloro-3-{1-[4-((S)-4-hydroxy-isoxazolidine-2-carbonyl)-phenyl]-1H-[1,2,3]triazol-4-yl}-1H-quinolin-2-one] | 30 | 2.6
4 | O=C(c1ccc(-n2cc(-c3cc4cc(F)ccc4[nH]c3=O)nn2)cc1)N1CCC[C@@H]1CN1CCCC1 [A278, 6-fluoro-3-{1-[4-((R)-2-pyrrolidin-1-ylmethyl-pyrrolidine-1-carbonyl)-phenyl]-1H-[1,2,3]triazol-4-yl}-1H-quinolin-2-one] | 17 | 1.5
5 | O=C(c1ccc(-n2cc(-c3cc4cc(F)ccc4[nH]c3=O)nn2)cc1)N1CCC[C@H]1CN1CCCC1 [A279, 6-fluoro-3-{1-[4-((S)-2-pyrrolidin-1-ylmethyl-pyrrolidine-1-carbonyl)-phenyl]-1H-[1,2,3]triazol-4-yl}-1H-quinolin-2-one] | 14 | 0.72
6 | O=C(c1ccc(-n2cc(-c3cc4cc(F)ccc4[nH]c3=O)nn2)cc1)N1CCC1 [A280, 3-{1-[4-(azetidine-1-carbonyl)-phenyl]-1H-[1,2,3]triazol-4-yl}-6-fluoro-1H-quinolin-2-one] | 77 | 53
7 | CN1CCN(C(=O)C2CCCN2C(=O)c2ccc(-n3cc(-c4cc5cc(F)ccc5[nH]c4=O)nn3)cc2)CC1 (centres unmarked) [A281, 6-fluoro-3-(1-{4-[2-(4-methyl-piperazine-1-carbonyl)-pyrrolidine-1-carbonyl]-phenyl}-1H-[1,2,3]triazol-4-yl)-1H-quinolin-2-one] | 57 | 10
8 | O=C(c1ccc(-n2cc(-c3cc4cc(F)c(F)cc4[nH]c3=O)nn2)cc1)N1C[C@H]2CNC[C@H]2C1 [A307, 6,7-difluoro-3-{1-[4-((cis)-hexahydro-pyrrolo[3,4-c]pyrrole-2-carbonyl)-phenyl]-1H-[1,2,3]triazol-4-yl}-1H-quinolin-2-one] | 17 | 240
9 | O=C(c1ccc(-n2cc(-c3cc4cc(F)ccc4[nH]c3=O)nn2)cc1)N1C[C@H]2CNC[C@H]2C1 [A308, 6-fluoro-3-{1-[4-((cis)-hexahydro-pyrrolo[3,4-c]pyrrole-2-carbonyl)-phenyl]-1H-[1,2,3]triazol-4-yl}-1H-quinolin-2-one] | 10 | 97.4
10 | N[C@@H]1CCCN(C(=O)c2ccc(-n3cc(-c4cc5cc(F)c(F)cc5[nH]c4=O)nn3)cc2)C1 [A309, 3-{1-[4-((R)-3-amino-piperidine-1-carbonyl)-phenyl]-1H-[1,2,3]triazol-4-yl}-6,7-difluoro-1H-quinolin-2-one hydrochloride] | 63 | 130
11 | N[C@H]1CCCN(C(=O)c2ccc(-n3cc(-c4cc5cc(F)c(F)cc5[nH]c4=O)nn3)cc2)C1 [A310, 3-{1-[4-((S)-3-amino-piperidine-1-carbonyl)-phenyl]-1H-[1,2,3]triazol-4-yl}-6,7-difluoro-1H-quinolin-2-one hydrochloride] | 44 | 85
12 | CN[C@@H]1CCN(C(=O)c2ccc(-n3cc(-c4cc5cc(F)ccc5[nH]c4=O)nn3)cc2)C1 [A311, 6-Fluoro-3-{1-[4-((R)-3-methylamino-pyrrolidine-1-carbonyl)-phenyl]-1H-[1,2,3]triazol-4-yl}-1H-quinolin-2-one hydrochloride] | 21 | 310
13 | CN[C@H]1CCN(C(=O)c2ccc(-n3cc(-c4cc5cc(F)ccc5[nH]c4=O)nn3)cc2)C1 [A312, 6-fluoro-3-{1-[4-((S)-3-methylamino-pyrrolidine-1-carbonyl)-phenyl]-1H-[1,2,3]triazol-4-yl}-1H-quinolin-2-one hydrochloride] | 61 | 290
14 | N[C@@H]1CCN(C(=O)c2ccc(-n3cc(-c4cc5cc(F)ccc5[nH]c4=O)nn3)cc2)C1 [A313, 3-{1-[4-((R)-3-amino-pyrrolidine-1-carbonyl)-phenyl]-1H-[1,2,3]triazol-4-yl}-6-fluoro-1H-quinolin-2-one hydrochloride] | 26 | 330
15 | N[C@@H]1[C@H]2CN(C(=O)c3ccc(-n4cc(-c5cc6cc(F)ccc6[nH]c5=O)nn4)cc3)C[C@@H]12 [A317, 3-{1-[4-(6-amino-3-aza-bicyclo[3.1.0]hexane-3-carbonyl)-phenyl]-1H-[1,2,3]triazol-4-yl}-6-fluoro-1H-quinolin-2-one] | 120 | 1400
16 | CN(C)C[C@@H]1CCCN1C(=O)c1ccc(-n2cc(-c3cc4cc(Cl)ccc4[nH]c3=O)nn2)cc1 [A318, 6-chloro-3-{1-[4-((S)-2-dimethylaminomethyl-pyrrolidine-1-carbonyl)-phenyl]-1H-[1,2,3]triazol-4-yl}-1H-quinolin-2-one] | 20 | 17

Now from value to compound:

Row | IC50 [1] [nM] | IC50 [2] [nM] | Structure (SMILES)
17 | 54 | 1.4 | O=C(c1ccc(-n2cc(-c3cc4cc(F)ccc4[nH]c3=O)nn2)cc1)N1C[C@H](O)CO1 [A276, 6-fluoro-3-{1-[4-((S)-4-hydroxy-isoxazolidine-2-carbonyl)-phenyl]-1H-[1,2,3]triazol-4-yl}-1H-quinolin-2-one]
18 | 38 | 14 | CN1CCN(C(=O)c2ccc(-n3cc(-c4cc5cc(F)ccc5[nH]c4=O)cn3)cc2)CC1 [A296, 6-fluoro-3-{1-[4-(4-methyl-piperazine-1-carbonyl)-phenyl]-1H-pyrazol-4-yl}-1H-quinolin-2-one]
19 | 66 | 240 | CO[C@H]1CCN(C(=O)c2ccc(-n3cc(-c4cc5cc(F)ccc5[nH]c4=O)cn3)cc2)C1 [A297, 6-fluoro-3-{1-[4-((S)-3-methoxy-pyrrolidine-1-carbonyl)-phenyl]-1H-pyrazol-4-yl}-1H-quinolin-2-one]
20 | 41 | 21 | CO[C@@H]1CCN(C(=O)c2ccc(-n3cc(-c4cc5cc(F)ccc5[nH]c4=O)cn3)cc2)C1 [A298, 6-fluoro-3-{1-[4-((R)-3-methoxy-pyrrolidine-1-carbonyl)-phenyl]-1H-pyrazol-4-yl}-1H-quinolin-2-one]
21 | 58 | 23 | COCCO[C@H]1CCN(C(=O)c2ccc(-n3cc(-c4cc5cc(F)ccc5[nH]c4=O)cn3)cc2)C1 [A299, 6-fluoro-3-(1-{4-[(S)-3-(2-methoxy-ethoxy)-pyrrolidine-1-carbonyl]-phenyl}-1H-pyrazol-4-yl)-1H-quinolin-2-one]
22 | 68 | 0.76 | CO[C@@H]1CN(C(=O)c2ccc(-n3cc(-c4cc5cc(F)ccc5[nH]c4=O)cn3)cc2)C[C@H]1OC [A300, 3-{1-[4-((3R,4R)-3,4-dimethoxy-pyrrolidine-1-carbonyl)-phenyl]-1H-pyrazol-4-yl}-6-fluoro-1H-quinolin-2-one]
23 | 43 | 1 | CO[C@@H]1C[C@@H](CO)N(C(=O)c2ccc(-n3cc(-c4cc5cc(F)ccc5[nH]c4=O)cn3)cc2)C1 [A301, 6-fluoro-3-{1-[4-((2S,4R)-2-hydroxymethyl-4-methoxy-pyrrolidine-1-carbonyl)-phenyl]-1H-pyrazol-4-yl}-1H-quinolin-2-one]
24 | 31 | 1.2 | CO[C@@H]1C[C@H](CO)N(C(=O)c2ccc(-n3cc(-c4cc5cc(F)ccc5[nH]c4=O)cn3)cc2)C1 [A302, 6-fluoro-3-{1-[4-((2R,4R)-2-hydroxymethyl-4-methoxy-pyrrolidine-1-carbonyl)-phenyl]-1H-pyrazol-4-yl}-1H-quinolin-2-one]
25 | 37 | 6 | CO[C@H]1CN(C(=O)c2ccc(-n3cc(-c4cc5cc(F)ccc5[nH]c4=O)cn3)cc2)C[C@@H]1OC [A303, 3-{1-[4-((3S,4S)-3,4-dimethoxy-pyrrolidine-1-carbonyl)-phenyl]-1H-pyrazol-4-yl}-6-fluoro-1H-quinolin-2-one]
26 | 72 | 180 | O=C(c1ccc(-n2cc(-c3cc4cc(F)ccc4[nH]c3=O)nn2)cc1)N1CCN[C@@H](CO)C1 [A314, 6-fluoro-3-{1-[4-((R)-3-hydroxymethyl-piperazine-1-carbonyl)-phenyl]-1H-[1,2,3]triazol-4-yl}-1H-quinolin-2-one hydrochloride]
27 | 200 | 1400 | O=C(c1ccc(-n2cc(-c3cc4cc(F)ccc4[nH]c3=O)nn2)cc1)N1CCNC[C@H]1CO [A315, 6-fluoro-3-{1-[4-((S)-2-hydroxymethyl-piperazine-1-carbonyl)-phenyl]-1H-[1,2,3]triazol-4-yl}-1H-quinolin-2-one]
28 | 120 | 520 | O=C(c1ccc(-n2cc(-c3cc4cc(F)ccc4[nH]c3=O)nn2)cc1)N1CCNC[C@@H]1CO [A316, 6-fluoro-3-{1-[4-((R)-2-hydroxymethyl-piperazine-1-carbonyl)-phenyl]-1H-[1,2,3]triazol-4-yl}-1H-quinolin-2-one]
